The subject of one series is lymphocyte mAChRs. Type of series: binding, human. The note with it: for LOAEL toward mAChRs: human lymphocytes in vitro, PCB values regardless of the presence of MeHg.
In the next series the target is T1, MAO-B (Homo sapiens, UniProt P27338).
T1 sequence (P27338 1-520): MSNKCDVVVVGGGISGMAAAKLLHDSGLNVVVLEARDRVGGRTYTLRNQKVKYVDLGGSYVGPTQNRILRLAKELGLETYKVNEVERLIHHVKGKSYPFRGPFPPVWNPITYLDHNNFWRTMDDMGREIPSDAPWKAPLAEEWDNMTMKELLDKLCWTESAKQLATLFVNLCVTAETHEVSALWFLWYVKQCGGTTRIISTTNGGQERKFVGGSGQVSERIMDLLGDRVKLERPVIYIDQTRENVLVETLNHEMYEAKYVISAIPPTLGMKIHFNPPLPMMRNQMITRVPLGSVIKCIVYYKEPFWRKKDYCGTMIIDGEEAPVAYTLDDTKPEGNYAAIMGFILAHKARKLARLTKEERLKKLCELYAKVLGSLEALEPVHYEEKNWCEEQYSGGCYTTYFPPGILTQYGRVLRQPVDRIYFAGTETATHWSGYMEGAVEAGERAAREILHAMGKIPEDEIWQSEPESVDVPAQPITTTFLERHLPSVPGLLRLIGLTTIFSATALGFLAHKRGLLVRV
Nature of the series: Platelet MAO-B activity. Type of series: biochemical. As to conditions: human platelets in vitro; for LOAEL toward MAO-B: not modified by MeHg addition.

For series [1] the following is noted: weaning rats given 1 mg MeHg kg−1 daily perinatally, cited from earlier work.

Take `Clc1ccc(-c2ccc(Cl)c(Cl)c2Cl)cc1Cl` [PCB-105]: the “LOAEL toward mAChRs” value with lymphocyte mAChRs was determined as 1 µM. Also, on MAO-B, the “LOAEL toward MAO-B” value worked out at 1 µM.

On to `Clc1ccc(-c2ccc(Cl)cc2Cl)cc1` [PCB-28], for which the “LOAEL toward mAChRs” value with lymphocyte mAChRs is 1 µM. Further, on MAO-B, the “LOAEL toward MAO-B” value turned out to be 10 µM.

In the case of `Oc1c(Cl)cc(-c2ccc(Cl)c(Cl)c2)c(Cl)c1Cl` [4-OH-PCB-107], the “LOAEL toward mAChRs” value with lymphocyte mAChRs came out at 1 µM. Also, the “LOAEL toward MAO-B” value on MAO-B stood at 10 µM.

In the case of `[CH3][Hg][Cl]` [MeHg, methylmercury], the “LOAEL toward mAChRs” value in the series with lymphocyte mAChRs is 1 µM. In the series on lymphocyte mAChRs (read-out: IC50, inhibition of [3H]QNB binding to lymphocyte mAChRs), the IC50 stood at 5 ± 0.9 µM. Also, the “inhibitory effect on MAO-B activity” value against MAO-B (MeHg up to 1 mM) was “negligible”. The “Hg concentration in the blood” value in series [1] (ref Coccini et al. 2007a) was 1.3 ± 0.4 µg/mL. Besides, the “Hg concentration in the brain” value in series [1] (ref Coccini et al. 2007b) is 1.5–2.8 ppm.

`Clc1cc(Cl)c(-c2cc(Cl)c(Cl)cc2Cl)cc1Cl` [PCB-153, 2,2′,4,4′,5,5′-hexachlorobiphenyl]: the “LOAEL toward mAChRs” value with lymphocyte mAChRs stood at 1 µM. The “IC50, MAO-B activity” value at MAO-B (in the presence or absence of 1 mM MeHg) was “No effect”.

Take `Clc1ccc(-c2cc(Cl)c(Cl)cc2Cl)cc1Cl` [PCB-118]: the “LOAEL toward mAChRs” value in the series with lymphocyte mAChRs turned out to be 1 µM. In addition, on MAO-B, the “LOAEL toward MAO-B” value was determined as 10 µM.

With `Clc1ccc(-c2ccc(Cl)c(Cl)c2)cc1Cl` [PCB-77], in the series with lymphocyte mAChRs, the “LOAEL toward mAChRs” value came out at 0.1 µM. Further, the “LOAEL toward MAO-B” value on MAO-B was determined as 10 µM.

Broadly, the IC50 is the point on the concentration scale where inhibition reaches its midpoint.

The values are drawn from publication PMC4415987 (Biomarkers : biochemical indicators of exposure, response, …, 2009).
